According to patent US9801903B2, “Targeting cancer with metabolic therapy and hyperbaric oxygen” (priority 2012, dated 2017):

Tested on: VM-M3/Fluc cells
Experiment: Whole animal tumor bioluminescence (tumor size and metastatic spread)
Type: in vivo, VM/Dk mice
Conditions: Example 2; day 21 post-inoculation; FIG. 8
Text: VM-M3/Fluc cells (T. Seyfried; Boston College) were obtained from a spontaneous tumor in a VM/Dk inbred mouse and adapted to cell culture (Huysentruyt et al., Metastatic cancer cells with macrophage properties: evidence from a new murine tumor model. Intl J Can. 2008, 123(1):73-84). […] VM-M3/Fluc cells are transfected with the firefly luciferase gene which produces a bioluminescent product in the presence of the enzymatic substrate luciferin (Shelton, et al. (2010) A novel pre-clinical in vivo mouse model for malignant brain tumor growth and invasion. Journal of neuro-oncology 99: 165-176). Bioluminescence can be detected and measured with the Xenogen IVIS Lumina System (Caliper LS). […] Bioluminescent signal was recorded using a 1 second exposure time on the IVIS Lumina cooled CCD camera. Progression of the metastatic cancer was measured by tracking the bioluminescent signal of the whole animal over time. Tumor bioluminescence will be measured once weekly for the duration of the study.
Tumor progression was measured using bioluminescence on the Xenogen IVIS Lumina cooled CCD camera (Caliper LS, Hopkinton, Mass.). […] Whole animal bioluminescent signal was measured in photons/sec once a week as an indicator of metastatic tumor size and spread. Tumor progression was measured 21 days after tumor cell inoculation.

CC(O)CCO (centres unmarked) [BD, 1,3-butanediol] was tested, and the “tumor bioluminescence / tumor growth and metastasis” value was “greatly reduced tumor growth and reduced metastasis of the tumor”.

For CC(=O)CC(=O)OCC[C@@H](C)OC(=O)CC(C)=O [KE, R,S-1,3-butanediol-diacetoacetate ester], the “tumor bioluminescence / tumor growth and metastasis” value was “greatly reduced tumor growth and reduced metastasis of the tumor”.
